Structures are written as SMILES.

Assay [1] concerns the target T1, Beta-carbonic anhydrase 1 (Mycobacterium tuberculosis, UniProt P9WPJ7).
T1 sequence (P9WPJ7 whole entry): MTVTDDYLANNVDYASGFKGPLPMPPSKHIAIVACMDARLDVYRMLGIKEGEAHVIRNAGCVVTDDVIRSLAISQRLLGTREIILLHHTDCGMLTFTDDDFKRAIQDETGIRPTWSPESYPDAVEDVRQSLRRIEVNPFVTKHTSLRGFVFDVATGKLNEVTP

In assay [2] the target is T2, PROBABLE TRANSMEMBRANE CARBONIC ANHYDRASE (CARBONATE DEHYDRATASE) (CARBONIC DEHYDRATASE) (Mycobacterium tuberculosis, UniProt P96878).
T2 sequence (P96878 whole entry): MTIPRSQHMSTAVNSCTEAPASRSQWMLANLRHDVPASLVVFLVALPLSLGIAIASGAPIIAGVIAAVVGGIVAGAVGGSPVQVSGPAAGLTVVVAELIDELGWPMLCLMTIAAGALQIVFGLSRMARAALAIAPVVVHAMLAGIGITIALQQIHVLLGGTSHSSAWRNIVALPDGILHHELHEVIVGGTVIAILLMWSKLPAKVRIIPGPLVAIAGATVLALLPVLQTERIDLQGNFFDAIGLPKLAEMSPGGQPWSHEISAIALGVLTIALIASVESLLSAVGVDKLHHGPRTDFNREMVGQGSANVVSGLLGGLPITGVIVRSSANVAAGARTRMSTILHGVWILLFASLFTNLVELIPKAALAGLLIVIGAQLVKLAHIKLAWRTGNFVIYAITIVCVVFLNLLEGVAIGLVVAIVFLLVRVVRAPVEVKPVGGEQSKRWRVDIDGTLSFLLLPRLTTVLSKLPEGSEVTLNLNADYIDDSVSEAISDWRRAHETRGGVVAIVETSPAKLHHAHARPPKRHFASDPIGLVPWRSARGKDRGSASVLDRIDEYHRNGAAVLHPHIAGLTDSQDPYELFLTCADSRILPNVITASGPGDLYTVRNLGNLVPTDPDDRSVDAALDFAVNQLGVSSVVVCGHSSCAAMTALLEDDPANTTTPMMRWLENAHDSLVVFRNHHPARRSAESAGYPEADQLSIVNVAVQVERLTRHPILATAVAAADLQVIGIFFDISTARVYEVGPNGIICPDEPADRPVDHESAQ
Description: Inhibition of Mycobacterium tuberculosis recombinant carbonic anhydrase Rv3273 by stopped flow CO2 hydration assay

In a further assay the target is Carbonic anhydrase 2 (Homo sapiens, UniProt P00918).

Description for Carbonic anhydrase 2: Inhibition of human cloned full length carbonic anhydrase 2 by stopped flow CO2 hydration assay

`Nc1ccc(/N=N/c2ccc(S(N)(=O)=O)cc2)cc1`: the Ki in assay [1] was found to be 7.2 µM; in assay [2] it was 8.78 µM.
`Nc1ccc(S(=O)(=O)NCc2ccc(S(N)(=O)=O)cc2)cc1` registered a Ki in assay [2] of 2.21 µM.
As for `NS(=O)(=O)c1ccc(/N=N/c2ccc(NCS(=O)(=O)O)cc2)cc1`, the Ki in assay [1] stood at 6.78 µM; in assay [2], 8.9 µM.
For the compound `CN(C)c1ccc(/N=N/c2ccc(S(N)(=O)=O)cc2)cc1`, the Ki on Carbonic anhydrase 2 was 0.638 µM; in assay [1] it was 6.86 µM; in assay [2], 30.7 µM.
With `NS(=O)(=O)c1ccc(/N=N/c2ccc(O)cc2)cc1`, the inhibition constant Ki in assay [1] came out at 9.27 µM; in assay [2], 12.4 µM.
For `CN(CS(=O)(=O)O)c1ccc(/N=N/c2cccc(S(N)(=O)=O)c2)cc1`, in that order: 63 µM and 7.4 µM.
As for `CN(CS(=O)(=O)O)c1ccc(/N=N/c2ccc(S(N)(=O)=O)cc2)cc1`, the Ki was determined as 8.71 µM in assay [1] and 9.03 µM in assay [2].
Consider `NS(=O)(=O)c1cccc(/N=N/c2ccc(NCS(=O)(=O)O)cc2)c1`, for which the results for the Ki in assay [1] and in assay [2] were 7.51 µM and 9.45 µM, respectively.
Take `Nc1ccc(/N=N/c2cccc(S(N)(=O)=O)c2)cc1`: the Ki stood at 7 µM in assay [1] and 8.68 µM in assay [2].
For the compound `CNc1ccc(/N=N/c2ccc(S(N)(=O)=O)cc2)cc1`, the inhibition constant Ki on Carbonic anhydrase 2 is 0.093 µM; in assay [1], 7.69 µM; in assay [2], 9.18 µM.
`NS(=O)(=O)c1cccc(/N=N/c2ccc(O)cc2)c1`: the Ki amounted to 0.106 µM at Carbonic anhydrase 2, 8.97 µM in assay [1] and 9.23 µM in assay [2].
As for `CN(C)c1ccc(/N=N/c2cccc(S(N)(=O)=O)c2)cc1`, the results for the Ki in assay [1] and in assay [2] were 7.54 µM and 9.36 µM, respectively.
Compound `Nc1ccc(S(=O)(=O)NCCc2ccc(S(N)(=O)=O)cc2)cc1` gave a Ki in assay [2] of 0.17 µM.
In assay [2], `CCN[C@H]1CN(CCCOC)S(=O)(=O)c2sc(S(N)(=O)=O)cc21` [BRINZOLAMIDE] yielded a Ki of 0.201 µM.
`NCc1ccc(S(N)(=O)=O)cc1` [MAFENIDE] returned a Ki in assay [2] of 7.33 µM.
With `CC(=O)Nc1cc2c(O)c(/N=N/c3ccc(S(N)(=O)=O)cc3)c(S(=O)(=O)O)cc2cc1S(=O)(=O)O` [PRONTOCIL], the Ki in assay [1] was 0.126 µM; in assay [2], 0.148 µM.
As to `O=S(=O)(O)CNc1ccccc1` [SODIUM PHENYLAMINOMETHANESULFONATE], the inhibition constant (Ki) was 8.67 µM in assay [1] and 8.9 µM in assay [2].
Regarding `CN(CS(=O)(=O)O)c1ccccc1` [SODIUM(METHYL(PHENYL)AMINO)METHANESULFONATE], the values for the Ki in assay [1] and in assay [2] were 7.86 µM and 9.11 µM, respectively.

For the origin of these results see ChEMBL document CHEMBL1155354, “Carbonic anhydrase inhibitors. Inhibition of the Rv1284 and Rv3273 beta-carbonic anhydrases from Mycobacterium tuberculosis with diazenylbenzenesulfonamides” (Bioorg Med Chem Lett, 2009).
